Measurements reported in ChEMBL document CHEMBL1201862, “PubChem BioAssay data set” (2004).
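Cultured in 96-well plates, cells were exposed to test compound for 48 hours across five concentrations. GI50 marks 50% less growth.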 Activity calls are given as the source filed them. Rule as the data show it: active = GI50 up to about 1.1 µM and inactive = higher.

What was measured:
Assay in all cases: NCI anticancer screen, dose series, 48 h
[1] = tested on: 786-0
[2] = tested on: A549
[3] = tested on: ACHN
[4] = tested on: CAKI-1
[5] = tested on: DU-145
[6] = tested on: HCT-116
[7] = tested on: HT-29
[8] = tested on: KM12
[9] = tested on: MDA-MB-435
[10] = tested on: Malme-3M
[11] = tested on: OVCAR-3
[12] = tested on: OVCAR-5
[13] = tested on: RXF 393
[14] = tested on: SF-268
[15] = tested on: SF-295
[16] = tested on: SK-MEL-5
[17] = tested on: SNB-75
[18] = tested on: T47D
[19] = tested on: UACC-62
[20] = tested on: OVCAR-4

SMILES	GI50 [1]	GI50 [2]	GI50 [3]	GI50 [4]	GI50 [5]	GI50 [6]	GI50 [7]	GI50 [8]	GI50 [9]	GI50 [10]	GI50 [11]	GI50 [12]	GI50 [13]	GI50 [14]	GI50 [15]	GI50 [16]	GI50 [17]	GI50 [18]	GI50 [19]	GI50 [20]
COC(=O)Cc1c(C2=Nc3ccccc3C2(O)CC(=O)OC)[nH]c2ccccc12 (stereo not given)	41.5 µM (inactive)	94 µM (inactive)	34.9 µM (inactive)	23 µM (inactive)	> 100 µM (inactive)	31.8 µM (inactive)	> 100 µM (inactive)	58.6 µM (inactive)	> 100 µM (inactive)	22.6 µM (inactive)	62.1 µM (inactive)	54.6 µM (inactive)	97.9 µM (inactive)	> 100 µM (inactive)	45.8 µM (inactive)	60.4 µM (inactive)	> 100 µM (inactive)	15.5 µM (inactive)	> 100 µM (inactive)	–
COc1cccc2cc(C(=O)Nc3ccccc3)c(=N)oc12	15.7 µM (inactive)	> 100 µM (inactive)	> 100 µM (inactive)	–	> 100 µM (inactive)	24.3 µM (inactive)	> 100 µM (inactive)	> 29.6 µM (inactive)	> 100 µM (inactive)	> 100 µM (inactive)	> 100 µM (inactive)	> 100 µM (inactive)	> 100 µM (inactive)	> 85.9 µM (inactive)	> 100 µM (inactive)	> 81.3 µM (inactive)	16.7 µM (inactive)	6.01 µM (inactive)	62.4 µM (inactive)	> 100 µM (inactive)
COc1cc(OC)c2c(=O)c(OC)c(-c3ccc4c(c3)OCO4)oc2c1OC	> 100 µM (inactive)	> 100 µM (inactive)	83.8 µM (inactive)	> 100 µM (inactive)	81.1 µM (inactive)	83.9 µM (inactive)	> 100 µM (inactive)	> 100 µM (inactive)	> 100 µM (inactive)	> 100 µM (inactive)	> 100 µM (inactive)	> 100 µM (inactive)	> 100 µM (inactive)	> 100 µM (inactive)	91.4 µM (inactive)	23.2 µM (inactive)	> 100 µM (inactive)	41.8 µM (inactive)	98.9 µM (inactive)	–
CCCCCCCCCCCCOC1C(COCCN2CCCC2)OC2OC(C)(C)OC21 (stereo not given)	1.68 µM (inactive)	4.42 µM (inactive)	3.35 µM (inactive)	1.6 µM (inactive)	10.9 µM (inactive)	1.75 µM (inactive)	1.55 µM (inactive)	–	1.76 µM (inactive)	1.92 µM (inactive)	1.62 µM (inactive)	1.51 µM (inactive)	1.57 µM (inactive)	2 µM (inactive)	1.86 µM (inactive)	1.6 µM (inactive)	1.83 µM (inactive)	2.07 µM (inactive)	1.91 µM (inactive)	2.03 µM (inactive)
CN(C)CCCN1c2ccc([N+](=O)[O-])cc2CCc2cccc([N+](=O)[O-])c21	13.6 µM (inactive)	16 µM (inactive)	17.6 µM (inactive)	–	17.4 µM (inactive)	14.3 µM (inactive)	13.7 µM (inactive)	15.6 µM (inactive)	14.6 µM (inactive)	14.1 µM (inactive)	15.4 µM (inactive)	13 µM (inactive)	10.5 µM (inactive)	15.5 µM (inactive)	15 µM (inactive)	15.2 µM (inactive)	13.2 µM (inactive)	17.4 µM (inactive)	3.37 µM (inactive)	0.57 µM (active)
O=C(NCCNCCCNC(=O)c1cc(-c2ccccc2)nc2ccccc12)c1cccc(O)c1O	2.62 µM (inactive)	4.72 µM (inactive)	2.43 µM (inactive)	5.4 µM (inactive)	3.61 µM (inactive)	1.47 µM (inactive)	4.88 µM (inactive)	4.44 µM (inactive)	2.51 µM (inactive)	3.82 µM (inactive)	2.38 µM (inactive)	2.28 µM (inactive)	4.84 µM (inactive)	2.86 µM (inactive)	1.84 µM (inactive)	1.36 µM (inactive)	10.6 µM (inactive)	3.3 µM (inactive)	2.27 µM (inactive)	–
COC(=O)c1cc(C)ccc1CC(Cc1ccccc1C)C(=O)OC (stereo not given)	89.5 µM (inactive)	51.6 µM (inactive)	75.2 µM (inactive)	32.8 µM (inactive)	> 100 µM (inactive)	14.7 µM (inactive)	22 µM (inactive)	23.8 µM (inactive)	18.1 µM (inactive)	23.2 µM (inactive)	24.4 µM (inactive)	–	26.9 µM (inactive)	61.2 µM (inactive)	38.2 µM (inactive)	14.1 µM (inactive)	> 100 µM (inactive)	26 µM (inactive)	27.5 µM (inactive)	29.7 µM (inactive)
O=C1NC(S(=O)(=O)O)=NNC12c1ccccc1-c1ccccc12	> 10 µM (inactive)	> 10 µM (inactive)	> 10 µM (inactive)	> 10 µM (inactive)	> 10 µM (inactive)	> 10 µM (inactive)	> 10 µM (inactive)	> 10 µM (inactive)	> 10 µM (inactive)	> 10 µM (inactive)	–	–	> 10 µM (inactive)	> 10 µM (inactive)	> 10 µM (inactive)	> 10 µM (inactive)	> 10 µM (inactive)	4.16 µM (inactive)	> 10 µM (inactive)	> 10 µM (inactive)
COc1ccc(NC(C)=O)cc1N1C(=O)/C(=C\c2cccc(Oc3ccccc3)c2)S(=O)(=O)C1c1ccccc1 (stereo not given)	32.2 µM (inactive)	62.8 µM (inactive)	39.4 µM (inactive)	16.6 µM (inactive)	39 µM (inactive)	17.4 µM (inactive)	18.7 µM (inactive)	59.2 µM (inactive)	33.8 µM (inactive)	70.1 µM (inactive)	28.5 µM (inactive)	> 100 µM (inactive)	54.8 µM (inactive)	–	53.1 µM (inactive)	35.3 µM (inactive)	19 µM (inactive)	18.5 µM (inactive)	58.7 µM (inactive)	16.1 µM (inactive)
COC(=O)C1(C(=O)OC)N=C(C)OC1/C=C/c1ccccc1 (stereo not given)	> 100 µM (inactive)	> 100 µM (inactive)	> 100 µM (inactive)	> 100 µM (inactive)	> 100 µM (inactive)	> 100 µM (inactive)	–	> 100 µM (inactive)	> 100 µM (inactive)	–	> 100 µM (inactive)	> 100 µM (inactive)	> 100 µM (inactive)	–	> 100 µM (inactive)	> 100 µM (inactive)	> 100 µM (inactive)	> 100 µM (inactive)	> 100 µM (inactive)	> 100 µM (inactive)
COC(=O)NN(C(=O)OC)c1c(-c2ccccc2)nc(SC)n1N	> 100 µM (inactive)	> 100 µM (inactive)	> 100 µM (inactive)	> 100 µM (inactive)	> 100 µM (inactive)	> 100 µM (inactive)	–	> 100 µM (inactive)	> 100 µM (inactive)	> 100 µM (inactive)	> 100 µM (inactive)	> 100 µM (inactive)	> 100 µM (inactive)	> 100 µM (inactive)	> 100 µM (inactive)	> 100 µM (inactive)	> 100 µM (inactive)	> 100 µM (inactive)	> 100 µM (inactive)	> 100 µM (inactive)
Nc1c(C(=O)c2ccc(Cl)cc2)[nH]c(NCc2ccccc2)c1C(=S)Nc1ccccc1	1.72 µM (inactive)	2.18 µM (inactive)	2.28 µM (inactive)	5.2 µM (inactive)	3.44 µM (inactive)	1.83 µM (inactive)	1.94 µM (inactive)	1.67 µM (inactive)	1.74 µM (inactive)	–	6.65 µM (inactive)	3 µM (inactive)	1.79 µM (inactive)	3.03 µM (inactive)	1.83 µM (inactive)	–	1.71 µM (inactive)	3.76 µM (inactive)	8.15 µM (inactive)	1.66 µM (inactive)
NC(=O)NCCCC(NC(=O)OCCCCn1ccc(=O)[nH]c1=O)C(=O)O (stereo not given)	> 100 µM (inactive)	> 100 µM (inactive)	> 100 µM (inactive)	> 100 µM (inactive)	> 100 µM (inactive)	> 100 µM (inactive)	> 100 µM (inactive)	> 100 µM (inactive)	> 100 µM (inactive)	–	> 100 µM (inactive)	> 100 µM (inactive)	> 100 µM (inactive)	> 100 µM (inactive)	> 100 µM (inactive)	–	> 100 µM (inactive)	> 100 µM (inactive)	> 100 µM (inactive)	> 100 µM (inactive)
O=C1CCc2cc(Br)ccc2O1	29.2 µM (inactive)	> 100 µM (inactive)	49.1 µM (inactive)	38.4 µM (inactive)	> 100 µM (inactive)	42 µM (inactive)	> 100 µM (inactive)	–	> 100 µM (inactive)	> 100 µM (inactive)	> 100 µM (inactive)	> 100 µM (inactive)	28.2 µM (inactive)	23.6 µM (inactive)	34 µM (inactive)	26.4 µM (inactive)	30.4 µM (inactive)	73.3 µM (inactive)	> 100 µM (inactive)	> 100 µM (inactive)
O=C1NN=C(c2ccc(Cl)cc2)CC1C1C(=O)N(c2ccccc2)N=C1c1ccccc1 (stereo not given)	24.7 µM (inactive)	34 µM (inactive)	29.2 µM (inactive)	–	53.7 µM (inactive)	19.6 µM (inactive)	32.9 µM (inactive)	29 µM (inactive)	31.6 µM (inactive)	30.7 µM (inactive)	27.5 µM (inactive)	28.9 µM (inactive)	22.5 µM (inactive)	48.2 µM (inactive)	29.9 µM (inactive)	> 10 µM (inactive)	23.2 µM (inactive)	22.1 µM (inactive)	26.8 µM (inactive)	26.4 µM (inactive)
